This is an account of results in US5387709A, “Substituted sulfonamides, process of preparation and medicines containing same” (Lipha Lyonnaise Industrielle Pharmaceutique, priority 1990, dated 1995).

Each structure is given as a SMILES string. pIC50: −log10 of the molar value.

Test [1] relates to platelets of guinea-pig. Description: Inhibition of the platelet aggregation induced by U46619 (BORN test), guinea-pig platelets. The format is cell-based. Particulars: Cavia porcellus, Platelet, read-out: PLATELET AGGREGATION GUINEA-PIG IC 50. The source says: (A) Inhibition of the platelet aggregation induced by U46619, a stable analogue of TXA2 (9,11-dideoxy-11α,9α-epoxymethanoprostaglandine F2 α):
The tests determine a concentration of compound which inhibits at 50% (CI50) a liminar aggregation induced by U46619. The activities of the compounds of the present invention are given in example 108.
(§1) The products of examples 1 to 107 have been tested for platelet aggregation on guinea-pig and on the contraction of the aorta in rat as described previously.

Test [2] concerns rat aorta. Description: Inhibition of the U46619 induced rat aorta vasoconstriction. Particulars: Rattus norvegicus, contraction by U46619 (142 nM), rat thoracic aorta, 37° C.; read-out: VASOCONSTRICTION RAT AORTA IC 50. The format is cell-based. How it is done: (B) Inhibition of the U46619 induced rat aorta vasoconstriction:
male rats weighing about 300 g are put to death by euthanasia; the thoracic aorta is rapidly taken out. A sample of about 1 cm is cut into a spiral, and placed in a vat containing 20 ml of nutrient medium (Krebs-Henseleit) kept a 37° C. and oxygenated (O2 95%, CO2 5%). The contractions are recorded with an isotonic strain gauge. After a rest of 45 mn, supramaximum contractions are provoked by the addition of an analogue of TXA2 (U46619: 142 nM) to the survival medium. A plateau is generally reached after 10 mn of contact, the latter not exceeding 25 mn. A rest of 30 mn and a plurality of rinses take place after each contraction. The products are added 10 mn after U46619 and allowed to rest 15 mn, after which delay the inhibition is measured. The inhibitory concentration 50 (IC) is determined for each compound studied and on a minimum of 3 aortas. The activities of the compounds of the present invention are described in example 108.
as §1

As for `O=C(O)Cc1ccc(CC2(CNS(=O)(=O)c3ccccc3Cl)CCCC2)cc1` [Example 32, 4-[[1-[[[(2-Chlorophenyl)sulfonyl]amino]methyl]cyclopentyl]methyl]benzeneacetic acid], the pIC50 in test [1] is 5.74; in test [2] it was 6.40.
As to `O=S(=O)(NCC1(Cc2ccc(CCO)cc2)CCCC1)c1cccc(Cl)c1` [Example 33, 3-Chloro-N-[[1-[[4-(2-hydroxyethyl)phenyl]methyl]cyclopentyl]methyl]benzenesulfonamide], the pIC50 in test [1] is less than 5.30; in test [2] it was less than 6.00.
Turning to `CC(=O)c1ccc(S(=O)(=O)NCC2(Cc3ccc(CCO)cc3)CCCC2)cc1` [Example 43, 4-Acetyl-N-[[1-[[4-(2-hydroxyethyl)phenyl]methyl]cyclopentyl]methyl]-benzenesulfonamide], the pIC50 in test [1] is less than 5.30; in test [2], less than 6.00.
Taken in the same sequence, the figures for `O=C(O)Cc1ccc(CC2(CNS(=O)(=O)c3cccc(Cl)c3)CCCC2)cc1` [Example 52, 4-[[1-[[[(3-Chlorophenyl)sulfonyl]amino]methyl]cyclopentyl]methyl]benzeneacetic acid] were less than 5.30 and less than 6.00.
On the same counts, the results for `O=C(O)Cc1ccc(CC2(CNS(=O)(=O)c3ccc(Br)cc3)CCCC2)cc1` [Example 53, 4-[[1-[[[(4-Bromophenyl)sulfonyl]amino]methyl]cyclopentyl]methyl]benzeneacetic acid] are 6.80 and 8.00.
On the same counts, the results for `O=C(O)Cc1ccc(CC2(CNS(=O)(=O)c3ccc(I)cc3)CCCC2)cc1` [Example 54, 4-[[1-[[[(4-Iodophenyl)sulfonyl]amino]methyl]cyclopentyl]methyl]benzeneacetic acid] are 5.96 and 7.40.
Consider `O=C(O)Cc1ccc(CC2(CNS(=O)(=O)c3ccc(C(F)(F)F)cc3)CCCC2)cc1` [Example 55, 4-[[1-[[[(4-Trifluoromethylphenyl)sulfonyl]amino]methyl]cyclopentyl]methyl]benzeneacetic acid], for which the pIC50 in test [1] was 5.54; in test [2] it was 7.00.
Taken in the same sequence, the figures for `O=C(O)Cc1ccc(CC2(CNS(=O)(=O)c3cccc(C(F)(F)F)c3)CCCC2)cc1` [Example 56, 4-[[1-[[[(3-Trifluoromethylphenyl)sulfonyl]amino]methyl]cyclopentyl]methyl]benzeneacetic acid] were 5.30 and 6.00.
On the same counts, the results for `N#Cc1ccc(S(=O)(=O)NCC2(Cc3ccc(CC(=O)O)cc3)CCCC2)cc1` [Example 57, 4-[[1-[[[(4-Cyanophenyl)sulfonyl]amino]methyl]cyclopentyl]methyl]benzeneacetic acid] are 6.16 and 7.00.
On the same counts, the results for `O=C(O)Cc1ccc(CC2(CNS(=O)(=O)c3cccc([N+](=O)[O-])c3)CCCC2)cc1` [Example 58, 4-[[1-[[[(3-Nitrophenyl)sulfonyl]amino]methyl]cyclopentyl]methyl]benzeneacetic acid] are 5.20 and 6.00.
As for `O=C(O)Cc1ccc(CC2(CNS(=O)(=O)c3ccc(Cl)cc3Cl)CCCC2)cc1` [Example 59, 4-[[1-[[[(2,4-Dichlorophenyl)sulfonyl]amino]methyl]cyclopentyl]methyl]benzeneacetic acid], the pIC50 in test [1] was 5.85; in test [2] it was 7.10.
With `CC(C)c1ccc(S(=O)(=O)NCC2(Cc3ccc(CC(=O)O)cc3)CCCC2)cc1` [Example 60, 4-[[1-[[[[4-(1-Methylethyl)phenyl]sulfonyl]amino]methyl]cyclopentyl]methyl]benzeneacetic acid], the pIC50 in test [1] is less than 5.30; in test [2], less than 6.00.
Take `CC(C)(C)c1ccc(S(=O)(=O)NCC2(Cc3ccc(CC(=O)O)cc3)CCCC2)cc1` [Example 61, 4-[[1-[[[[4-(1,1-Dimethylethyl)phenyl]sulfonyl]amino]methyl]cyclopentyl]methyl]benzeneacetic acid]: the figures for the pIC50 in test [1] and in test [2] were less than 5.30 and less than 6.00, respectively.
Take `CC(=O)c1ccc(S(=O)(=O)NCC2(Cc3ccc(CC(=O)O)cc3)CCCC2)cc1` [Example 62, 4-[[1-[[[(4-Acetylphenyl)sulfonyl]amino]methyl]cyclopentyl]methyl]benzeneacetic acid]: the results for the pIC50 in test [1] and in test [2] were 5.52 and 6.12, respectively.
On the same counts, the results for `CS(=O)(=O)c1ccc(S(=O)(=O)NCC2(Cc3ccc(CC(=O)O)cc3)CCCC2)cc1` [Example 63, 4-[[1-[[[(4-Methylsulfonylphenyl)sulfonyl]amino]methyl]cyclopentyl]methyl]benzeneacetic acid] are less than 5.30 and less than 6.00.
For the compound `O=C(O)Cc1ccc(CC2(CNS(=O)(=O)c3ccc(OC(F)(F)F)cc3)CCCC2)cc1` [Example 64, 4-[[1-[[[(4-Trifluoromethoxyphenyl)sulfonyl]amino]methyl]cyclopentyl]methyl]benzeneacetic acid], the pIC50 is 5.59 in test [1] and 6.89 in test [2].
Taken in the same sequence, the figures for `COc1ccc(S(=O)(=O)NCC2(Cc3ccc(CC(=O)O)cc3)CCCC2)cc1` [Example 65, 4-[[1-[[[(4-Methoxyphenyl)sulfonyl]amino]methyl]cyclopentyl]methyl]benzeneacetic acid] were 6.46 and 6.57.
On the same counts, the results for `Cc1cnc2c(S(=O)(=O)NCC3(Cc4ccc(CC(=O)O)cc4)CCCC3)cccc2c1` [Example 66, 4-[[1-[[[(3-Methylquinol-8-yl)sulfonyl]amino]methyl]cyclopentyl]methyl]benzeneacetic acid] are less than 5.30 and less than 6.00.
Turning to `O=C(O)Cc1ccc(CC2(CNS(=O)(=O)c3cccs3)CCCC2)cc1` [Example 67, 4-[[1-[[[(Thien-2-yl)sulfonyl]amino]methyl]cyclopentyl]methyl]benzeneaceticacid], the pIC50 in test [1] is 5.82; in test [2], 6.55.
For `O=C(O)Cc1ccc(CC2(CNS(=O)(=O)c3ccc(Cl)s3)CCCC2)cc1` [Example 68, 4-[[1-[[[(5-Chlorothien-2-yl)sulfonyl]amino]methyl]cyclopentyl]methyl]benzeneacetic acid], the pIC50 in test [1] is 5.40; in test [2], 6.40.
On to `O=C(O)Cc1ccc(CC2(CNS(=O)(=O)c3c[nH]cn3)CCCC2)cc1` [Example 69, 4-[[1-[[[(Imidazol-4-yl)sulfonyl]amino]methyl]cyclopentyl]methyl]benzeneacetic acid], for which the pIC50 in test [1] was less than 5.30; in test [2], less than 6.00.
On the same counts, the results for `O=C(O)Cc1ccc(CC2(CNS(=O)(=O)c3ccco3)CCCC2)cc1` [Example 70, 4-[[1-[[[(fur-2-yl)sulfonyl]amino]methyl]cyclopentyl]methyl]benzeneacetic acid] are less than 5.30 and 6.00.
Taken in the same sequence, the figures for `O=C(O)Cc1ccc(CC2(CNS(=O)(=O)c3ccc(O)cc3)CCCC2)cc1` [Example 71, 4-[[1-[[[(4-Hydroxyphenyl)sulfonyl]amino]methyl]cyclopentyl]methyl]benzeneacetic acid] were 5.52 and 7.40.
Taken in the same sequence, the figures for `O=C(O)Cc1ccc(CC2(CNS(=O)(=O)c3ccc(Cl)cc3)CC2)cc1` [Example 72, 4-[[1-[[[(4-Chlorophenyl)sulfonyl]amino]methyl]cyclopropyl]methyl]benzeneacetic acid] were 6.19 and 7.40.
